Test results: ChEMBL document CHEMBL1201862, “PubChem BioAssay data set” (2004)
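Following 48 hours of exposure in 96-well plates, responses at five concentrations were used to interpolate endpoints linearly. Abbreviation: GI50, concentration required for 50% inhibition of growth.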 Activity calls are given as the source filed them. No stated cut-off is given here; in the data, active = GI50 up to about 1.1 µM and inactive = higher.

Tests used:
Experiment in all cases: NCI tumour cell line growth inhibition, 48 h
ACHN = system: ACHN
HCT-116 = system: HCT-116
UO-31 = system: UO-31
SK-MEL-5 = system: SK-MEL-5
COLO 205 = system: COLO 205
NCI-H23 = system: NCI-H23
786-0 = system: 786-0
KM12 = system: KM12
UACC-62 = system: UACC-62
OVCAR-3 = system: OVCAR-3
A498 = system: A498
NCI/ADR-RES = system: NCI/ADR-RES
SW-620 = system: SW-620
OVCAR-5 = system: OVCAR-5
IGROV-1 = system: IGROV-1
CCRF-CEM = system: CCRF-CEM
HCT-15 = system: HCT-15
DU-145 = system: DU-145
UACC-257 = system: UACC-257
EKVX = system: EKVX
SK-OV-3 = system: SK-OV-3
T47D = system: T47D
BT-549 = system: BT-549
NCI-H460 = system: NCI-H460
OVCAR-4 = system: OVCAR-4
HL-60 = system: HL-60
A549 = system: A549
SF-539 = system: SF-539
K562 = system: K562
SK-MEL-2 = system: SK-MEL-2
SR = system: SR
OVCAR-8 = system: OVCAR-8
HT-29 = system: HT-29
SF-295 = system: SF-295
NCI-H522 = system: NCI-H522
SN12C = system: SN12C
SF-268 = system: SF-268
M14 = system: M14
MDA-N = system: MDA-N
CAKI-1 = system: CAKI-1
Malme-3M = system: Malme-3M
U-251 = system: U-251
NCI-H226 = system: NCI-H226
HOP-92 = system: HOP-92
RXF 393 = system: RXF 393
MOLT-4 = system: MOLT-4
MDA-MB-435 = system: MDA-MB-435
SNB-19 = system: SNB-19
HOP-62 = system: HOP-62
SK-MEL-28 = system: SK-MEL-28
MDA-MB-231 = system: MDA-MB-231
LOX IMVI = system: LOX IMVI
RPMI-8226 = system: RPMI-8226
TK-10 = system: TK-10
Hs-578T = system: Hs-578T
PC-3 = system: PC-3
SNB-75 = system: SNB-75
HCC 2998 = system: HCC 2998
MCF7 = system: MCF7

## O=C(NC1CCN(Cc2ccccc2)CC1)c1ccc(I)cc1
ACHN
  GI50: 96.2 µM (inactive)
HCT-116
  GI50: 39.6 µM (inactive)
UO-31
  GI50: 22.9 µM (inactive)
SK-MEL-5
  GI50: 17.7 µM (inactive)
COLO 205
  GI50: 21.8 µM (inactive)
NCI-H23
  GI50: 94.2 µM (inactive)
786-0
  GI50: 97.5 µM (inactive)
KM12
  GI50: > 100 µM (inactive)
UACC-62
  GI50: 59.4 µM (inactive)
OVCAR-3
  GI50: > 100 µM (inactive)
A498
  GI50: > 100 µM (inactive)
NCI/ADR-RES
  GI50: > 100 µM (inactive)
SW-620
  GI50: > 100 µM (inactive)
OVCAR-5
  GI50: > 100 µM (inactive)
IGROV-1
  GI50: 94 µM (inactive)
CCRF-CEM
  GI50: 76.7 µM (inactive)
HCT-15
  GI50: 59.6 µM
DU-145
  GI50: 91.6 µM (inactive)
UACC-257
  GI50: 45.8 µM (inactive)
EKVX
  GI50: > 100 µM (inactive)
SK-OV-3
  GI50: 44.1 µM (inactive)
T47D
  GI50: > 100 µM (inactive)
BT-549
  GI50: 87.5 µM (inactive)
NCI-H460
  GI50: > 100 µM (inactive)
OVCAR-4
  GI50: > 100 µM (inactive)
HL-60
  GI50: > 100 µM (inactive)
A549
  GI50: 76.4 µM (inactive)
SF-539
  GI50: 78.3 µM (inactive)
K562
  GI50: 42.4 µM (inactive)
SK-MEL-2
  GI50: 75.9 µM (inactive)
SR
  GI50: > 100 µM (inactive)
OVCAR-8
  GI50: > 100 µM (inactive)
HT-29
  GI50: 19.8 µM (inactive)
SF-295
  GI50: 29.5 µM (inactive)
NCI-H522
  GI50: 63.5 µM (inactive)
SN12C
  GI50: > 100 µM (inactive)
SF-268
  GI50: 63.8 µM (inactive)
M14
  GI50: 39 µM (inactive)
MDA-N
  GI50: 54.6 µM (inactive)
CAKI-1
  GI50: 70.1 µM (inactive)
Malme-3M
  GI50: 1.98 µM (inactive)
U-251
  GI50: 81.1 µM (inactive)
NCI-H226
  GI50: 33.4 µM (inactive)
HOP-92
  GI50: 34 µM (inactive)
RXF 393
  GI50: 25.2 µM (inactive)
MOLT-4
  GI50: > 100 µM (inactive)
MDA-MB-435
  GI50: 33.3 µM (inactive)
SNB-19
  GI50: > 100 µM (inactive)
HOP-62
  GI50: 55.6 µM (inactive)
SK-MEL-28
  GI50: 63.2 µM (inactive)
MDA-MB-231
  GI50: 19.4 µM (inactive)
LOX IMVI
  GI50: > 100 µM (inactive)
RPMI-8226
  GI50: 63.5 µM (inactive)
TK-10
  GI50: > 100 µM (inactive)
Hs-578T
  GI50: 33.2 µM (inactive)
PC-3
  GI50: 62.7 µM (inactive)

## NCC(=O)NC1(c2cc3ccccc3s2)CCCCC1
ACHN
  GI50: 23.3 µM (inactive)
HCT-116
  GI50: 42.7 µM (inactive)
SNB-75
  GI50: 28.3 µM (inactive)
UO-31
  GI50: 45.9 µM (inactive)
SK-MEL-5
  GI50: 17.8 µM (inactive)
COLO 205
  GI50: 17.9 µM (inactive)
NCI-H23
  GI50: 71.4 µM (inactive)
786-0
  GI50: 41.4 µM (inactive)
KM12
  GI50: 40.6 µM (inactive)
UACC-62
  GI50: 19.7 µM (inactive)
OVCAR-3
  GI50: > 100 µM (inactive)
A498
  GI50: 31 µM (inactive)
HCC 2998
  GI50: 15.6 µM (inactive)
NCI/ADR-RES
  GI50: 48.5 µM (inactive)
SW-620
  GI50: 91 µM (inactive)
OVCAR-5
  GI50: 40.5 µM (inactive)
IGROV-1
  GI50: 61.1 µM (inactive)
CCRF-CEM
  GI50: 22 µM (inactive)
HCT-15
  GI50: 61.1 µM
DU-145
  GI50: > 100 µM (inactive)
UACC-257
  GI50: 17.4 µM (inactive)
EKVX
  GI50: 19.9 µM (inactive)
SK-OV-3
  GI50: 67.6 µM (inactive)
T47D
  GI50: 40 µM (inactive)
MCF7
  GI50: 27.2 µM (inactive)
BT-549
  GI50: 54.1 µM (inactive)
NCI-H460
  GI50: 33.5 µM (inactive)
OVCAR-4
  GI50: 50.8 µM (inactive)
HL-60
  GI50: 18.5 µM (inactive)
A549
  GI50: 74.1 µM (inactive)
SF-539
  GI50: 50.9 µM (inactive)
K562
  GI50: 5.68 µM (inactive)
SR
  GI50: < 0.01 µM (active)
OVCAR-8
  GI50: > 100 µM (inactive)
HT-29
  GI50: 18.6 µM (inactive)
SF-295
  GI50: 59.7 µM (inactive)
NCI-H522
  GI50: 41.4 µM (inactive)
SN12C
  GI50: 79.1 µM (inactive)
SF-268
  GI50: 28.4 µM (inactive)
M14
  GI50: 17.6 µM (inactive)
MDA-N
  GI50: 38.8 µM (inactive)
CAKI-1
  GI50: > 100 µM (inactive)
Malme-3M
  GI50: 17.6 µM (inactive)
NCI-H226
  GI50: 18.7 µM (inactive)
HOP-92
  GI50: 22.2 µM (inactive)
RXF 393
  GI50: 42.3 µM (inactive)
MDA-MB-435
  GI50: 37.8 µM (inactive)
SNB-19
  GI50: > 100 µM (inactive)
HOP-62
  GI50: > 100 µM (inactive)
SK-MEL-28
  GI50: 19 µM (inactive)
LOX IMVI
  GI50: 51.1 µM (inactive)
RPMI-8226
  GI50: 21.8 µM (inactive)
TK-10
  GI50: 36 µM (inactive)
Hs-578T
  GI50: 27.7 µM (inactive)

## c1ccc2cc(CNCCOCCOCCNCc3ccc4ccccc4c3)ccc2c1
ACHN
  GI50: 1.79 µM (inactive)
HCT-116
  GI50: 1.58 µM (inactive)
SNB-75
  GI50: 1.95 µM (inactive)
SK-MEL-5
  GI50: 2.39 µM (inactive)
COLO 205
  GI50: 1.48 µM (inactive)
NCI-H23
  GI50: 2 µM (inactive)
786-0
  GI50: 1.57 µM (inactive)
KM12
  GI50: 1.6 µM (inactive)
UACC-62
  GI50: 2.06 µM (inactive)
OVCAR-3
  GI50: 1.67 µM (inactive)
A498
  GI50: 1.71 µM (inactive)
HCC 2998
  GI50: 0.208 µM (active)
SW-620
  GI50: 1.91 µM (inactive)
OVCAR-5
  GI50: 1.9 µM (inactive)
IGROV-1
  GI50: 1.7 µM (inactive)
CCRF-CEM
  GI50: 1.97 µM (inactive)
HCT-15
  GI50: 1.94 µM
DU-145
  GI50: 1.78 µM (inactive)
UACC-257
  GI50: 1.49 µM (inactive)
EKVX
  GI50: 2.54 µM (inactive)
SK-OV-3
  GI50: 3.13 µM (inactive)
T47D
  GI50: 2.74 µM (inactive)
MCF7
  GI50: 1.79 µM (inactive)
BT-549
  GI50: 1.78 µM (inactive)
NCI-H460
  GI50: 1.64 µM (inactive)
OVCAR-4
  GI50: 2.47 µM (inactive)
HL-60
  GI50: 1.85 µM (inactive)
A549
  GI50: 1.74 µM (inactive)
SF-539
  GI50: 1.85 µM (inactive)
K562
  GI50: 0.446 µM (active)
SK-MEL-2
  GI50: 1.91 µM (inactive)
SR
  GI50: 1.26 µM (inactive)
OVCAR-8
  GI50: 1.77 µM (inactive)
HT-29
  GI50: 1.31 µM (inactive)
SF-295
  GI50: 1.64 µM (inactive)
NCI-H522
  GI50: 1.83 µM (inactive)
SN12C
  GI50: 2.16 µM (inactive)
SF-268
  GI50: 1.97 µM (inactive)
M14
  GI50: 1.95 µM (inactive)
MDA-N
  GI50: 1.65 µM (inactive)
CAKI-1
  GI50: 1.81 µM (inactive)
Malme-3M
  GI50: 1.76 µM (inactive)
U-251
  GI50: 1.97 µM (inactive)
NCI-H226
  GI50: 2.09 µM (inactive)
HOP-92
  GI50: 1.52 µM (inactive)
RXF 393
  GI50: 1.78 µM (inactive)
MOLT-4
  GI50: 1.92 µM (inactive)
MDA-MB-435
  GI50: 1.8 µM (inactive)
SNB-19
  GI50: 2.31 µM (inactive)
HOP-62
  GI50: 1.85 µM (inactive)
SK-MEL-28
  GI50: 1.97 µM (inactive)
MDA-MB-231
  GI50: 1.57 µM (inactive)
LOX IMVI
  GI50: 1.46 µM (inactive)
RPMI-8226
  GI50: 1.19 µM (inactive)
TK-10
  GI50: 1.62 µM (inactive)
Hs-578T
  GI50: 1.57 µM (inactive)
PC-3
  GI50: 2.17 µM (inactive)
